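Each compound was tested at five concentrations against cells in 96-well plates for 48 hours. GI50 is the concentration that inhibits growth by half. TGI: concentration producing complete growth inhibition.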
Assays:
Assay in all cases: DTP human tumour cell line panel, 48 h
DU-145 prostate = test system: DU-145 prostate
CCRF-CEM leukemia = test system: CCRF-CEM leukemia
COLO 205 colon = test system: COLO 205 colon
NCI/ADR-RES ovarian = test system: NCI/ADR-RES ovarian
SF-268 CNS = test system: SF-268 CNS
SK-MEL-5 melanoma = test system: SK-MEL-5 melanoma
A549 NSCLC = test system: A549 NSCLC
PC-3 prostate = test system: PC-3 prostate

SMILES | GI50 (DU-145 prostate) | TGI (DU-145 prostate) | GI50 (CCRF-CEM leukemia) | TGI (CCRF-CEM leukemia) | GI50 (COLO 205 colon) | TGI (COLO 205 colon) | GI50 (NCI/ADR-RES ovarian) | TGI (NCI/ADR-RES ovarian) | GI50 (SF-268 CNS) | TGI (SF-268 CNS) | GI50 (SK-MEL-5 melanoma) | TGI (SK-MEL-5 melanoma) | GI50 (A549 NSCLC) | TGI (A549 NSCLC) | GI50 (PC-3 prostate) | TGI (PC-3 prostate)
O=P(CCCCP(=O)(c1ccccc1)c1ccccc1)(c1ccccc1)c1ccccc1.[Cl][Sn]([Cl])([c]1ccccc1)[c]1ccccc1 | 2 µM | 4.52 µM | 0.224 µM | 2.39 µM | 1.78 µM | 3.98 µM | 2.96 µM | 10.8 µM | 1.75 µM | 4.05 µM | 1.9 µM | 4.07 µM | 3.59 µM | > 23.6 µM | 2.29 µM | 6.04 µM
COc1cc(NC(=O)CSc2nc3ccc(C)cc3c(=O)n2Cc2ccccc2)cc(OC)c1OC | 84.7 µM | > 100 µM | > 100 µM | > 100 µM | > 100 µM | > 100 µM | 8.97 µM | > 100 µM | 6.91 µM | > 100 µM | 3.67 µM | 23.7 µM | 10.5 µM | > 100 µM | 6.88 µM | > 100 µM
C=C(C)[C@@H]1CC[C@]2(C)[C@H](CC=C3[C@@H]4[C@@H](C)[C@H](C)CC[C@]4(C(N)=O)CC[C@]32C)[C@@]1(C)CCC#N | 4.41 µM | 26.4 µM | 3.73 µM | 45 µM | 4.01 µM | 15.6 µM | 4 µM | 17.2 µM | 4.52 µM | > 100 µM | 2.71 µM | 8.16 µM | 3.35 µM | > 100 µM | 2.58 µM | 21 µM
CCC[CH2][Sn]([CH2]CCC)([CH2]CCC)[O]C(=O)c1ccc(Cl)cc1Cl | 0.128 µM | 0.257 µM | – | – | 0.183 µM | 0.375 µM | 0.177 µM | 0.378 µM | 0.134 µM | 0.283 µM | 0.143 µM | 0.276 µM | 0.164 µM | 0.328 µM | 0.202 µM | 0.471 µM
CC(=O)OCC(=O)[C@@]12OC(C)(C)O[C@@H]1C[C@H]1[C@@H]3CC=C4C[C@@H](O)CC[C@]4(C)[C@H]3CC[C@@]12C | – | > 100 µM | – | > 100 µM | – | > 100 µM | – | > 100 µM | – | > 100 µM | – | > 100 µM | – | > 100 µM | – | > 100 µM
O=C(O)c1cc(-c2ccncc2)nc2ccccc12 | – | > 100 µM | – | – | – | > 100 µM | – | > 100 µM | – | > 100 µM | – | > 100 µM | – | > 100 µM | – | > 100 µM
CC[C@@]1(OC(=O)CN)C(=O)OCc2c1cc1n(c2=O)Cc2cc3c(N)cccc3nc2-1 | – | – | < 0.01 µM | > 100 µM | 0.392 µM | 2.66 µM | < 0.01 µM | 0.258 µM | < 0.01 µM | > 100 µM | – | – | < 0.0129 µM | 1.77 µM | 0.16 µM | > 100 µM

Reference: PubChem BioAssay (NCI)
